Read-outs that look alike come from different tables or passages of the source.
Legend:
MMP-2 [1] = target: T1, MMP-2 (Homo sapiens, UniProt P08253); assay: biochemical
T1 sequence (P08253 110-660): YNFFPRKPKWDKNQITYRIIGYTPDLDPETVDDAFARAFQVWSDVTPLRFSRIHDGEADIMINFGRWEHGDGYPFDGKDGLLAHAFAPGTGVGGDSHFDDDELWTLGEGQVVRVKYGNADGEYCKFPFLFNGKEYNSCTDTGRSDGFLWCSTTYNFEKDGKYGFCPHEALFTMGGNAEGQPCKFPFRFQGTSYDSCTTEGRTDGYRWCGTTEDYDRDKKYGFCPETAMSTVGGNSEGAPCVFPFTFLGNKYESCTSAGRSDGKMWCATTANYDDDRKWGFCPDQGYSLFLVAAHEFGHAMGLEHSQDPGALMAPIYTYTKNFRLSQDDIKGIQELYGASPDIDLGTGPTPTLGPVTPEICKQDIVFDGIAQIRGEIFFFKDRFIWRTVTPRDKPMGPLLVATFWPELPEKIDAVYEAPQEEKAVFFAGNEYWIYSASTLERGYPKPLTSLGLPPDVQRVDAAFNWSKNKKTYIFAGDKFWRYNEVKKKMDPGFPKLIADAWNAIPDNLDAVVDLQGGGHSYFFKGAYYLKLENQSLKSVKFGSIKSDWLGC

MMP-9 [2] = target: T2, MMP-9 (Homo sapiens, UniProt P14780); assay: biochemical
MMP-3 = target: T3, MMP-3 (Homo sapiens, UniProt P08254); assay: Fluorescence enzymatic activity assay / kinetic analyses, stromelysin 1 (MMP-3); type: biochemical; conditions: NI = not inhibiting even at 130-330 μM
T3 construct: gift of Dr. Paul Cannon, Center for Bone and Joint Research, Palo Alto, Calif

MMP-7 = target: T4, MMP-7 (Homo sapiens, UniProt P09237); assay: Fluorescence enzymatic activity assay / kinetic analyses, MMP-7; type: biochemical; conditions: NI = not inhibiting even at 130-330 μM
T4 sequence (P09237 95-267): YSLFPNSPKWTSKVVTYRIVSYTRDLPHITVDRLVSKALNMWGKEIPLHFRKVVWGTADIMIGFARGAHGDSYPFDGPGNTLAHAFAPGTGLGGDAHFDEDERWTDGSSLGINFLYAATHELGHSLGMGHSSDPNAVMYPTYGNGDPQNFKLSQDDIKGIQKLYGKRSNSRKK
Protocol: The enzymatic activity of MMP-2, MMP-9, and MMP-7 was monitored with the fluorescence quenched substrate MOCAcPLGLA2pr(Dnp)-AR-NH2. Fluorescence was measured with a Photon Technology International (PTI) spectrofluorometer interfaced to a Pentium computer, equipped with the RatioMaster™ and FeliX™ hardware and software, respectively. The cuvette compartment was thermostated at 25.0° C. […] Fluorescence measurements were taken every 4 s. Less than 10% hydrolysis of the fluorogenic substrate was monitored, as described by Knight.

MMP-1 = target: T5, MMP-1 (Homo sapiens, UniProt P03956); assay: Kinetic analyses, MMP-1; type: biochemical; conditions: NI = not inhibiting even at 130-330 μM
T5 sequence (P03956 100-469): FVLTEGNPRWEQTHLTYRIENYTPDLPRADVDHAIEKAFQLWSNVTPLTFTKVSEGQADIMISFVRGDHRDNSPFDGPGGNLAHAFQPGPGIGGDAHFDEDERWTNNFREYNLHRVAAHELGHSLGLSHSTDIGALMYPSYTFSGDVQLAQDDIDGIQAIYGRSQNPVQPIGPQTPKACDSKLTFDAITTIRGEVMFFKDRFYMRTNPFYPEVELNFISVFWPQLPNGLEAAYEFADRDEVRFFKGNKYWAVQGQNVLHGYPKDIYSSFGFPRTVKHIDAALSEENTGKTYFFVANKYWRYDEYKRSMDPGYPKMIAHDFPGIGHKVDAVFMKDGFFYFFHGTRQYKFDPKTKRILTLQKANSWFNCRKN
Protocol: The progress curves were nonlinear least squares fitted to Equation 1 (Muller-Steffner, H. M., Malver, O., Hosie, L., Oppenheimer, N. J., and Schuber, F. J. Biol. Chem. 1992, 267, 9606-9611.):
Analysis for linear competitive inhibition was performed in the following manner. […] The fluorescence versus time traces were fitted by linear regression analysis using FeliX™. The initial rates were fitted to Equation 5 (Segel, I. H. in: Enzyme Kinetics, Wiley Inc., New York, 1975, pp. 104.):
The following buffers were used in experiments with enzymes: Buffer C (50 mM HEPES at pH 7.5, 150 mM NaCl, 5 mM CaCl2, 0.02% Brij-35); buffer R (50 mM HEPES at pH 7.5, 150 mM NaCl, 5 mM CaCl2, 0.01% Brij-35, and 1% v/v Me2SO) and buffer D (50 mM Tris at pH 7.5, 150 mM NaCl, 5 mM CaCl2, and 0.02% Brij-35).

MMP-2 [3] = target: T1, MMP-2; conditions: high-affinity site for TIMPs, reported earlier (Olson et al. 1997); cited from earlier work
MMP-9 [4] = target: T2, MMP-9; conditions: high-affinity site for TIMPs, reported earlier (Olson et al. 1997); cited from earlier work

T3 sequence (P08254 100-477): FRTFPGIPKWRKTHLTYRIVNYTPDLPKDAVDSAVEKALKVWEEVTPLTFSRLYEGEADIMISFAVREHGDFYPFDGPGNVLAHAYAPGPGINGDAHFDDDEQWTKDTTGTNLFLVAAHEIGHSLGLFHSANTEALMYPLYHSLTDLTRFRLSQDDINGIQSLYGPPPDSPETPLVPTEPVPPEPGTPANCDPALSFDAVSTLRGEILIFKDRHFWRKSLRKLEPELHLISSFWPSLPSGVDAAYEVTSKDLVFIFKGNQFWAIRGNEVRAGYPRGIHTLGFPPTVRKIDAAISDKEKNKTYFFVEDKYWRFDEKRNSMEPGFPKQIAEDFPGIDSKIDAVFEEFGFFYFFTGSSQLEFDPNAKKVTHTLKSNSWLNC
T2 sequence (P14780 107-707 limits assumed): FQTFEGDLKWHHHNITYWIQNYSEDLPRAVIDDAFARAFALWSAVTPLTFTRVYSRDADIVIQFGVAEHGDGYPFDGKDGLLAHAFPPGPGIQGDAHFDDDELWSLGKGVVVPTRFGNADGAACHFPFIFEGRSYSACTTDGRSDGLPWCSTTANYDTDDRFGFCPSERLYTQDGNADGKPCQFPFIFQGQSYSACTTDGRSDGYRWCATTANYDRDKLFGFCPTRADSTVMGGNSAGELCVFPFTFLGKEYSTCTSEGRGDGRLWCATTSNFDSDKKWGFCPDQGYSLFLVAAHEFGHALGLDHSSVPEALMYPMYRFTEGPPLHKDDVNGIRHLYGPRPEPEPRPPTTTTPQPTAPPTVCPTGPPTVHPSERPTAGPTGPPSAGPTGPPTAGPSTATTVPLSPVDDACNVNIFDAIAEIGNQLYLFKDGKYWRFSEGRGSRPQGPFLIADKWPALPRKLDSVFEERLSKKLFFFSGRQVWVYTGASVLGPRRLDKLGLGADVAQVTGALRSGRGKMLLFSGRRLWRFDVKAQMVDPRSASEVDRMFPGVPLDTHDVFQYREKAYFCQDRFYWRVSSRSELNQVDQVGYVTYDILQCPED

Compound | Ki (MMP-2 [1]; Ki) [µM] | Ki (MMP-9 [2]) [µM] | Ki (MMP-3) [µM] | Ki (MMP-7) [µM] | Ki (MMP-1) [µM] | melting point [°C] | Ki (MMP-2 [3]) [µM] | Ki (MMP-9 [4]) [µM] | Ki (MMP-2 [1]) [µM]
O=S(=O)(CCC1CO1)c1ccc(Oc2ccccc2)cc1 (stereo not shown) [Compound 5, 2-(4-Phenoxyphenylsulfonyl)ethyloxirane] | 5.1 ± 0.5 | 102 ± 2 | > 130 | > 130 | > 130 | 75 to 77 |  |  | 
O=S(=O)(CC1CO1)c1ccc(Oc2ccccc2)cc1 (stereo not shown) [Compound 4, (4-Phenoxyphenylsulfonyl)methyloxirane] | 25 ± 2 | 186 ± 11 | > 130 | > 130 | > 130 | 50 to 51 |  |  | 
TIMP-1: endogenous cellular protein inhibitor of MMPs (tissue inhibitor for matrix metalloproteinases) |  |  |  |  |  |  | 0.029 ± 0.005 | 0.024 ± 0.004 | 
O=S(=O)(CCCC1CO1)c1ccc(Oc2ccccc2)cc1 (stereo not shown) [Compound 6, 3-(4-Phenoxyphenylsulfonyl)propyloxirane] | 10.7 ± 0.6 | 75 ± 6 | > 130 | > 130 | > 130 |  |  |  | 
O=S(=O)(CCC1CS1)c1ccc(Oc2ccccc2)cc1 (stereo not shown) [Compound 2, 2-(4-Phenoxyphenylsulfonyl)ethylthiirane] |  | 44 ± 5 | > 130 | > 130 | > 130 | 99 to 101 |  |  | 4.7 ± 0.7
O=S(=O)(CCCC1CS1)c1ccc(Oc2ccccc2)cc1 (stereo not shown) [Compound 3, 3-(4-Phenoxyphenylsulfonyl)propylthiirane] |  | 181 ± 41 | > 130 | > 130 | > 130 | 75 to 76 |  |  | 4.3 ± 0.7

Source: US6703415B2, “Inhibitors of matrix metallaproteinases” (Wayne State University, priority 2000, dated 2004)
